Experimental data taken from patent US20240199647A1, “ANTI-VIRAL COMPOUNDS” (Aligos Therapeutics, Inc., priority 2022, published 2024).
Read-outs that look alike come from different tables or passages of the source.

How the values were obtained:
SARS-Cov-2 3CLpro = SARS-Cov-2 3CLpro (Severe acute respiratory syndrome coronavirus 2, UniProt P0DTD1); assay: biochemical; conditions: Table A, read-out: SARS-Cov-2 (IC50)
[1] = system: human beta-coronavirus OC43; assay: OC43 Coronavirus Assay in HeLa cells (antiviral, cytopathic effect, cell-titer-glo); format: cell-based; conditions: Betacoronavirus 1, OC43, HeLa, Table B, OC43 coronavirus in HeLa cells, read-out: EC50
[2] = system: SARS-CoV-2 B.1.1.7 lineage; assay: microbe, parasite or virus in culture; format: cell-based; conditions: Severe acute respiratory syndrome coronavirus 2, Table C, SARS-CoV-2 B.1.1.7 in A549-dual_ACE2_TMPRSS2 cells, read-out: A549-dual_ACE2_TMPRSS2 (EC50)
in vitro = conditions: human
[3] = Cytotoxicity in HeLa cells without addition of OC43 virus (in parallel); conditions: human, HeLa cells, without OC43 virus

Structure (SMILES) | IC50 (SARS-Cov-2 3CLpro; class symbols) [nM] | EC50 ([1]; class symbols) [nM] | EC50 ([2]; class symbols) [nM] | CC50 (in vitro) [nM] | CC50 at 6 days [3] [nM] | EC50 ([1]; cells given as a bound) [nM] | EC50 ([2]; cells given as a bound) [nM] | IC50 (SARS-Cov-2 3CLpro; cells given as a bound) [nM]
CN(C(=O)[C@H](CC1CC1)NC(=O)C(F)(F)F)[C@@H](CC1CC1)C(=O)N1C[C@@]2(C[C@H]1C#N)Oc1ccc(F)c(F)c1NC2=O [Compound 52] | < 20 | < 100 | < 100 | > 1000 | > 10000 |  |  | 
CN(C(=O)[C@@H](Cc1ccc(F)cc1)NC(=O)C(F)(F)F)[C@@H](CC1CC1)C(=O)N1C[C@@]2(C[C@H]1C#N)Oc1cc(F)cc(F)c1NC2=O [Compound 90] | < 20 | < 100 | < 100 | > 1000 | > 10000 |  |  | 
COC(=O)N[C@@H](CC1CC1)C(=O)N(C)[C@@H](CC1CC1)C(=O)N1C[C@@]2(C[C@H]1C#N)Oc1cc(F)cc(F)c1NC2=O [Compound 75] |  |  | < 100 | > 1000 | > 10000 | > 10000 |  | 
CC1=N[C@@]2(C[C@@H](C#N)N(C(=O)[C@H](CC(C)C)N(C)C(=O)[C@H](C)NC(=O)C(F)(F)F)C2)C(=O)N1 [Compound 18] | 20 to 200 | 1000 to 10000 |  | > 1000 | > 10000 |  | > 1000 | 
CN(C(=O)[C@H](CC1CC1)NC(=O)C(F)(F)F)[C@@H](CC1CC1)C(=O)N1C[C@@]2(C[C@H]1C#N)Oc1cnccc1NC2=O [Compound 73] | 20 to 200 | 100 to 1000 | 100 to 1000 | > 1000 | > 10000 |  |  | 
CN(C(=O)[C@H](CC1CC1)NC(=O)C(F)(F)F)[C@@H](CC1CC1)C(=O)N1C[C@@]2(C[C@H]1C#N)Oc1cc(F)cnc1NC2=O [Compound 67] | < 20 | < 100 | 100 to 1000 | > 1000 | > 10000 |  |  | 
CC(C)CC(C(=O)N1C[C@]2(C[C@H]1C#N)C(=O)Nc1c3c(nn12)CCCC3)N(C)C(=O)[C@H](C)NC(=O)C(F)(F)F (stereo in doubt) [Example 28, (2S)—N-[(2S)-1-[(3R,5'S)-5′-cyano-2-oxo-6,7,8,9-tetrahydro-1H-spiro[imidazo[1,2-b]indazole-3,3′-pyrrolidin]-1′-yl]-4-methyl-1-oxopentan-2-yl]-N-methyl-2-(2,2,2-trifluoroacetamido)propanamide] | < 20 | < 100 |  | > 1000 | > 10000 |  | > 1000 | 
Cc1c(-c2ccccc2)nn2c1NC(=O)[C@]21C[C@@H](C#N)N(C(=O)[C@H](CC(C)C)N(C)C(=O)[C@H](C)NC(=O)C(F)(F)F)C1 [Compound 130] | 20 to 200 | 100 to 1000 | 100 to 1000 | > 1000 | > 10000 |  |  | 
CN(C(=O)[C@H](CC1CC1)n1cc(C2CC2)nn1)[C@@H](CC1CC1)C(=O)N1C[C@@]2(C[C@H]1C#N)Oc1cc(F)cc(F)c1NC2=O [Compound 108, (S)—N—((S)-1-((2R,5'S)-5′-cyano-5,7-difluoro-3-oxo-3,4-dihydrospiro[benzo[b][1,4]oxazine-2,3′-pyrrolidin]-1′-yl)-3-cyclopropyl-1-oxopropan-2-yl)-3-cyclopropyl-2-(4-cyclopropyl-1H-1,2,3-triazol-1-yl)-N-methylpropanamide] | < 20 | 100 to 1000 | < 100 | > 1000 | > 10000 |  |  | 
COC[C@H](NC(=O)C(F)(F)F)C(=O)N(C)[C@@H](CC(C)C)C(=O)N1C[C@@]2(C[C@H]1C#N)Oc1cc(F)cc(F)c1NC2=O [Compound 72] | < 20 | 100 to 1000 | 100 to 1000 | > 1000 | > 10000 |  |  | 
CN(C(=O)[C@H](CC1CC1)NC(=O)C(F)(F)F)[C@@H](CC1CC1)C(=O)N1C[C@@]2(C[C@H]1C#N)Oc1cccc(F)c1CNC2=O [Compound 141] | < 20 | < 100 | 100 to 1000 | > 1000 | > 10000 |  |  | 
CC(C)C[C@@H](C(=O)N1C[C@]2(C[C@H]1C#N)C(=O)Nc1ccccc1C2(C)O)N(C)C(=O)[C@H](C)NC(=O)C(F)(F)F (some centres unmarked) [Compound 80] | 200 to 2000 | < 100 |  |  | > 10000 |  |  | 
COc1cccc2[nH]c(C(=O)N(C)[C@@H](CC3CC3)C(=O)N3C[C@@]4(C[C@H]3C#N)Oc3cc(F)cc(F)c3NC4=O)cc12 [Compound 134] | < 20 |  |  | > 1000 |  | > 10000 | > 1000 | 
CN(C(=O)[C@H](CCCCN)NC(=O)C(F)(F)F)[C@@H](CC1CC1)C(=O)N1C[C@@]2(C[C@H]1C#N)Oc1cccnc1NC2=O [Compound 221] | < 20 |  |  |  | > 10000 | > 10000 |  | 
C[C@H](Nc1ncnc2ccccc12)C(=O)N(C)[C@@H](CC1CC1)C(=O)N1C[C@@]2(C[C@H]1C#N)Oc1cccnc1NC2=O [Compound 230] | < 20 | 100 to 1000 |  |  | > 10000 |  |  | 
CN(C(=O)c1ccc(=O)[nH]n1)[C@@H](CC1CC1)C(=O)N1C[C@@]2(C[C@H]1C#N)Oc1cccnc1NC2=O [Compound 231] |  |  |  |  | > 10000 | > 10000 |  | > 2000
N#C[C@@H]1C[C@]2(CN1C(=O)[C@H](CC1CC1)NC(=O)[C@H](CC1CC1)NC(=O)C(F)(F)F)Oc1cc(F)cc(F)c1NC2=O [Compound 78] |  | 100 to 1000 | 100 to 1000 | > 1000 | > 10000 |  |  | 
CN(C(=O)c1cnn(-c2ccccc2C(F)(F)F)c1)[C@@H](CC1CC1)C(=O)N1C[C@@]2(C[C@H]1C#N)Oc1cc(F)cc(F)c1NC2=O [Compound 79] |  | < 100 | 100 to 1000 | > 1000 | > 10000 |  |  | 
CN(C(=O)[C@H](CC1CC1)NC(=O)C1(F)CC1)[C@@H](CC1CC1)C(=O)N1C[C@@]2(C[C@H]1C#N)Oc1cc(F)cc(F)c1NC2=O [Compound 76] |  | < 100 | < 100 | > 1000 | > 10000 |  |  | 
Cc1ccc(C(=O)N(C)[C@@H](CC2CC2)C(=O)N2C[C@@]3(C[C@H]2C#N)Oc2cccnc2NC3=O)[nH]c1=O [Compound 232] | 200 to 2000 |  |  |  | > 10000 | > 10000 |  | 
CN(C(=O)[C@H](CC1CC1)NC(=O)C(F)(F)F)[C@@H](CC1CC1)C(=O)N1C[C@@]2(C[C@H]1C#N)Oc1ncccc1NC2=O [Compound 91] | < 20 | < 100 |  |  | > 10000 |  |  | 
CC1NC(=O)[C@]2(C[C@@H](C#N)N(C(=O)[C@H](CC3CC3)N(C)C(=O)[C@H](CC3CC3)NC(=O)C(F)(F)F)C2)Oc2ccccc21 (single isomer, unassigned) [Compound 223, (S)—N—((S)-1-((2R,5S*,5'S)-5′-cyano-5-methyl-3-oxo-4,5-dihydro-3H-spiro[benzo[f][1,4]oxazepine-2,3′-pyrrolidin]-1′-yl)-3-cyclopropyl-1-oxopropan-2-yl)-3-cyclopropyl-N-methyl-2-(2,2,2-trifluoroacetamido)propanamide] | 20 to 200 | 100 to 1000 |  |  | > 10000 |  |  | 
CN(C(=O)[C@H](CC1CC1)NC(=O)c1ccc(F)cc1)[C@@H](CC1CC1)C(=O)N1C[C@@]2(C[C@H]1C#N)Oc1cc(F)cc(F)c1NC2=O [Compound 77] |  | < 100 | < 100 | > 1000 | > 10000 |  |  | 
CC(C)C[C@@H](C(=O)N1C[C@@]2(CCCNC2=O)C[C@H]1C#N)N(C)C(=O)[C@H](C)NC(=O)C(F)(F)F [Compound 9, (S)—N—((S)-1-((3S,5R)-3-cyano-6-oxo-2,7-diazaspiro[4.5]decan-2-yl)-4-methyl-1-oxopentan-2-yl)-N-methyl-2-(2,2,2-trifluoroacetamido)propanamide] | 20000 to 100000 |  | 1000 to 10000 | > 1000 |  |  |  | 
CN(C(=O)[C@@H](CC1CCCCC1)NC(=O)C(F)(F)F)[C@@H](CC1CC1)C(=O)N1C[C@@]2(C[C@H]1C#N)Oc1cccnc1NC2=O [Compound 145] | < 20 |  | < 100 | > 1000 |  |  |  | 
